Experimental data taken from PubChem BioAssay AID652027 (The Scripps Research Institute Molecular Screening Center, 2013).
The source made the active and inactive calls.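 The calls were made as follows: active = STAT3 reporter signal fold change below 0.5 at 10 µM; inactive = the rest.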

Test system: U3A cells, IL-6 STAT3 luciferase reporter, luminescence
Assay: STAT3 signaling inhibitors in reporter cells, late-stage follow-up, counter-screen for STAT5 inhibitor project, U3A cells, luminescence, assay provider run (AID 652027)
Settings: at 10 µM; active compounds read low

O=C(C[n+]1ccc2ccccc2c1)c1ccc2ccccc2c1
fold change: 1.34 (inactive)

CN1/C(=C\C(=O)CN2C(=O)c3ccccc3C2=O)C(C)(C)c2ccccc21
fold change: 0.87 (inactive)

CN1/C(=C\C(=O)C[n+]2ccccc2)C(C)(C)c2ccccc21
fold change: 0.77 (inactive)

CN1/C(=C\C(=O)Cn2cnc3ccc(Cl)cc3c2=O)C(C)(C)c2ccccc21
fold change: 0.92 (inactive)

CN1/C(=C\C(=O)CN2C(=O)c3ccccc3CS2(=O)=O)C(C)(C)c2ccccc21
fold change: 0.65 (inactive)

CN1/C(=C\C(=O)Cn2nnc(-c3ccccc3)n2)C(C)(C)c2ccccc21
fold change: 0.62 (inactive)

CN1/C(=C\C(=O)Cn2cc(C(F)(F)F)ccc2=O)C(C)(C)c2ccccc21
fold change: 1.09 (inactive)

CN1/C(=C\C(=O)CN2C(=O)C3CC=CCC3C2=O)C(C)(C)c2ccccc21 (stereo not given)
fold change: 0.7 (inactive)

O=C(C[n+]1ccc2ccccc2c1)Nc1ccccc1
fold change: 1.74 (inactive)

CN1/C(=C\C(=O)CN2CCc3ccccc3C2)C(C)(C)c2ccccc21
fold change: 1.28 (inactive)

CN1/C(=C\C(=O)CN2CCCC2)C(C)(C)c2ccccc21
fold change: 0.72 (inactive)

COc1ccc2oc(=O)c(C(=O)C[n+]3ccc4ccccc4c3)cc2c1
fold change: 1.15 (inactive)

COc1cccc2cc(C(=O)C[n+]3ccc4ccccc4c3)c(=O)oc12
fold change: 1.17 (inactive)

CCOC(=O)C1CCCN(CC(=O)/C=C2/N(C)c3ccccc3C2(C)C)C1 (stereo not given)
fold change: 1.16 (inactive)

CN1/C(=C\C(=O)CN2C(=O)NC(C)(c3ccc(Cl)cc3)C2=O)C(C)(C)c2ccccc21 (stereo not given)
fold change: 0.75 (inactive)

Cc1cc[n+](CC(=O)/C=C2\N(C)c3ccccc3C2(C)C)c(C)c1
fold change: 0.61 (inactive)

O=C(C[n+]1ccc2ccccc2c1)c1ccccc1
fold change: 1.04 (inactive)

CN1/C(=C\C(=O)CN2C(=O)c3ccccc3S2(=O)=O)C(C)(C)c2ccccc21
fold change: 0.82 (inactive)

O=C(C[n+]1ccc2ccccc2c1)c1cc2ccccc2oc1=O
fold change: 0.84 (inactive)

CC(C)(C)C(=O)C[n+]1ccc2ccccc2c1
fold change: 0.93 (inactive)

CN1/C(=C\C(=O)C[n+]2cccc(-c3ccccc3)c2)C(C)(C)c2ccccc21
fold change: 0.55 (inactive)

COC(=O)C1CCCCN1CC(=O)/C=C1/N(C)c2ccccc2C1(C)C (stereo not given)
fold change: 1.04 (inactive)

CN1/C(=C\C(=O)Cn2c(=O)c(C#N)cn(C)c2=O)C(C)(C)c2ccccc21
fold change: 1.03 (inactive)

CN1/C(=C\C(=O)CN2C(=O)c3ccc([N+](=O)[O-])cc3C2=O)C(C)(C)c2ccccc21
fold change: 0.77 (inactive)

Cc1cc[n+](CC(=O)/C=C2\N(C)c3ccccc3C2(C)C)cc1
fold change: 0.68 (inactive)
